Experimental data as given in the NIST ThermoML archive (doi:10.1016/j.fluid.2010.02.010).
Numbers after ± are expanded uncertainties.

Columns and labels:
[1] = excess molar enthalpy (molar enthalpy of mixing); xn = mol fraction of the nth substance listed; conditions: 101 kPa, Liquid, Flow calorimetry
[2] = activity coefficient (dimensionless); of the first substance listed, at infinite dilution; xn = mol fraction of the nth substance listed; conditions: 101 kPa, Liquid, x1 = 0
[3] = 101.33 kPa, Liquid, Vibrating tube method

CCCCn1cc[n+](C)c1.O=S(=O)([O-])C(F)(F)F [1-butyl-3-methylimidazolium trifluoromethanesulfonate] + CCCCCCC
[1]
Conditions | excess molar enthalpy [kcal/mol]
363.15 K, x2 = 0.02 | 0.0178 ± 0.000454
363.15 K, x2 = 0.0501 | 0.0321 ± 0.000765
363.15 K, x2 = 0.1001 | 0.0421 ± 0.000956
363.15 K, x2 = 0.1502 | 0.0435 ± 0.001
363.15 K, x2 = 0.2002 | 0.0418 ± 0.000956
363.15 K, x2 = 0.3003 | 0.037 ± 0.00086
363.15 K, x2 = 0.4003 | 0.0312 ± 0.000741
363.15 K, x2 = 0.5003 | 0.0263 ± 0.000645
363.15 K, x2 = 0.6003 | 0.0207 ± 0.000526
363.15 K, x2 = 0.7003 | 0.0152 ± 0.000406
363.15 K, x2 = 0.8002 | 0.00987 ± 0.000311
363.15 K, x2 = 0.9001 | 0.00492 ± 0.000215
413.15 K, x2 = 0.0371 | 0.073 ± 0.0016
413.15 K, x2 = 0.1085 | 0.0833 ± 0.00184
413.15 K, x2 = 0.143 | 0.0831 ± 0.00182
413.15 K, x2 = 0.1766 | 0.0805 ± 0.00177
413.15 K, x2 = 0.2094 | 0.0775 ± 0.0017
413.15 K, x2 = 0.2729 | 0.0713 ± 0.00158
413.15 K, x2 = 0.3335 | 0.0655 ± 0.00146
413.15 K, x2 = 0.3915 | 0.0611 ± 0.00136
413.15 K, x2 = 0.5002 | 0.0505 ± 0.00115
413.15 K, x2 = 0.6002 | 0.0409 ± 0.000932
413.15 K, x2 = 0.6925 | 0.0319 ± 0.000741
413.15 K, x2 = 0.8183 | 0.0198 ± 0.000502
413.15 K, x2 = 0.9311 | 0.0076 ± 0.000263

C=CCCCCCC [oct-1-ene] + CCCCCCn1cc[n+](C)c1.O=S(=O)([O-])C(F)(F)F
activity coefficient, [2]
Conditions | 303.14 K | 303.16 K | 313.15 K | 313.17 K | 323.15 K | 333.14 K | 333.18 K
Chromatography | 15.4 ± 1.1 | – | 15 ± 1 | – | 14.6 ± 1 | 14.3 ± 0.98 | –
dilutor technique | – | 15 ± 0.75 | – | 14.5 ± 0.73 | 14.2 ± 0.71 | – | 13.7 ± 0.69

CCCCCCn1cc[n+](C)c1.O=S(=O)([O-])C(F)(F)F [1-hexyl-3-methylimidazolium trifluoromethanesulfonate] + C=CCCCC
[1], 413.15 K
Conditions | excess molar enthalpy [kcal/mol]
x2 = 0.0407 | 0.00805 ± 0.000287
x2 = 0.0604 | 0.0117 ± 0.000335
x2 = 0.0797 | 0.0159 ± 0.00043
x2 = 0.0987 | 0.0205 ± 0.000526
x2 = 0.1172 | 0.0245 ± 0.000598
x2 = 0.1353 | 0.0282 ± 0.000669

CCCCCCn1cc[n+](C)c1.O=S(=O)([O-])C(F)(F)F [1-hexyl-3-methylimidazolium trifluoromethanesulfonate]
[3]
Conditions | mass density [kg/m3]
308.16 K | 1231.4 ± 0.2
313.16 K | 1227.6 ± 0.2
318.16 K | 1223.8 ± 0.2
323.16 K | 1220 ± 0.2
328.16 K | 1216.2 ± 0.2
333.16 K | 1212.5 ± 0.2
338.16 K | 1208.7 ± 0.2
343.16 K | 1205 ± 0.2
348.15 K | 1201.3 ± 0.2

C=CCCCC [hex-1-ene] + CCCCn1cc[n+](C)c1.O=S(=O)([O-])C(F)(F)F
activity coefficient, [2]
Conditions | 303.17 K | 303.45 K | 313.15 K | 313.36 K | 323.14 K | 323.15 K | 333.14 K | 333.18 K
Chromatography | – | 14.4 ± 0.98 | – | 14 ± 0.96 | 13.5 ± 0.92 | – | 13 ± 0.89 | –
Dilutor technique | 14.3 ± 0.71 | – | 13.8 ± 0.69 | – | – | 13.5 ± 0.67 | – | 12.9 ± 0.65

CCCCCC [hexane] + CCCCCCn1cc[n+](C)c1.O=S(=O)([O-])C(F)(F)F
[2], dilutor technique
Conditions | activity coefficient
303.11 K | 12.8 ± 0.64
313.16 K | 11.9 ± 0.6
323.17 K | 11.4 ± 0.57
333.17 K | 10.9 ± 0.55

C=CCCC [1-pentene] + CCCCn1cc[n+](C)c1.O=S(=O)([O-])C(F)(F)F
activity coefficient, [2]
Conditions | 303.45 K | 313.15 K | 323.15 K | 333.15 K | 333.18 K
Chromatography | 10.1 ± 0.69 | 9.69 ± 0.66 | 9.48 ± 0.65 | 9.18 ± 0.63 | –
Dilutor technique | – | 9.55 ± 0.48 | 9.34 ± 0.47 | – | 9.06 ± 0.45

C=CCCCCC [1-heptene] + CCCCn1cc[n+](C)c1.O=S(=O)([O-])C(F)(F)F
activity coefficient, [2]
Conditions | 303.17 K | 303.45 K | 313.13 K | 313.15 K | 323.14 K | 323.16 K | 333.15 K | 333.16 K
Chromatography | – | 21.8 ± 1.5 | – | 21.3 ± 1.5 | 20.6 ± 1.4 | – | 19.9 ± 1.4 | –
Dilutor technique | 22.1 ± 1.1 | – | 21.2 ± 1.1 | – | – | 20.2 ± 1 | – | 19.7 ± 0.99

CCCCCCCC [octane] + CCCCn1cc[n+](C)c1.O=S(=O)([O-])C(F)(F)F
activity coefficient, [2]
Conditions | 303.12 K | 303.15 K | 313.15 K | 313.36 K | 323.12 K | 323.15 K | 333.15 K | 333.21 K
Chromatography | – | 71.2 ± 4.9 | – | 65.5 ± 4.5 | – | 60.3 ± 4.1 | 55.2 ± 3.8 | –
Dilutor technique | 70.3 ± 3.5 | – | 65.6 ± 3.3 | – | 60.1 ± 3 | – | – | 55.7 ± 2.8

C=CCCCCC [1-heptene] + CCCCCCn1cc[n+](C)c1.O=S(=O)([O-])C(F)(F)F
activity coefficient, [2]
Conditions | 303.14 K | 303.16 K | 313.15 K | 313.17 K | 323.15 K | 333.14 K | 333.18 K
Chromatography | 11.2 ± 0.76 | – | 10.8 ± 0.74 | – | 10.6 ± 0.72 | 10.4 ± 0.71 | –
dilutor technique | – | 11 ± 0.55 | – | 10.6 ± 0.53 | 10.4 ± 0.52 | – | 10.1 ± 0.5

C=CCCC [1-pentene] + CCCCCCn1cc[n+](C)c1.O=S(=O)([O-])C(F)(F)F
[2], dilutor technique
Conditions | activity coefficient
303.18 K | 4.62 ± 0.23
313.15 K | 4.58 ± 0.23
323.16 K | 4.54 ± 0.23
333.15 K | 4.51 ± 0.23

C=CCCCCCC [oct-1-ene] + CCCCn1cc[n+](C)c1.O=S(=O)([O-])C(F)(F)F
activity coefficient, [2]
Conditions | 303.17 K | 303.45 K | 313.13 K | 313.15 K | 323.14 K | 323.16 K | 333.15 K | 333.16 K
Chromatography | – | 33.7 ± 2.3 | – | 32 ± 2.2 | 30.6 ± 2.1 | – | 29.3 ± 2 | –
Dilutor technique | 33.3 ± 0.67 | – | 31.5 ± 0.63 | – | – | 29.9 ± 0.6 | – | 29 ± 0.58
